According to patent US20240109903A1, “SUBSTITUTED HETEROCYCLES FOR TREATING CANCER” (Northwestern University, priority 2022, published 2024):

Tests used:
OVCAR-3 = assay: NCI 60 five-dose screen OVCAR-3; assay type: cell-based; details: Homo sapiens, five-dose
T-47D = assay: NCI 60 five-dose screen T-47D; assay type: cell-based; details: Homo sapiens, T47D, five-dose
CAKI-1 = assay: NCI 60 five-dose screen CAKI-1; assay type: cell-based; details: Homo sapiens, five-dose
MOLT-4 = assay: NCI 60 five-dose screen MOLT-4; assay type: cell-based; details: Homo sapiens, five-dose
SR = assay: NCI 60 five-dose screen SR; assay type: cell-based, human; details: Homo sapiens, five-dose
NCI-H23 = assay: NCI 60 five-dose screen NCI-H23; assay type: cell-based; details: Homo sapiens, five-dose
TK-10 = assay: NCI 60 five-dose screen TK-10; assay type: cell-based; details: Homo sapiens, five-dose
786-0 = assay: NCI 60 five-dose screen 786-0; assay type: cell-based; details: Homo sapiens, five-dose
A498 = assay: NCI 60 five-dose screen A498; assay type: cell-based; details: Homo sapiens, five-dose
RPMI-8226 = assay: NCI 60 five-dose screen RPMI-8226; assay type: cell-based; details: Homo sapiens, five-dose
NCI-H226 = assay: NCI 60 five-dose screen NCI-H226; assay type: cell-based; details: Homo sapiens, five-dose
BT-549 = assay: NCI 60 five-dose screen BT-549; assay type: cell-based; details: Homo sapiens, five-dose
SF-539 = assay: NCI 60 five-dose screen SF-539; assay type: cell-based; details: Homo sapiens, five-dose
HS 578T = assay: NCI 60 five-dose screen HS 578T; assay type: cell-based; details: Homo sapiens, five-dose
IGROV1 = assay: NCI 60 five-dose screen IGROV1; assay type: cell-based; details: Homo sapiens, IGROV-1, five-dose
MALME-3M = assay: NCI 60 five-dose screen MALME-3M; assay type: cell-based; details: Homo sapiens, MALME-3M, five-dose
U251 = assay: NCI 60 five-dose screen U251; assay type: cell-based; details: Homo sapiens, U-251, five-dose
MCF7 = assay: NCI 60 five-dose screen MCF7; assay type: cell-based; details: Homo sapiens, five-dose
A549/ATCC = assay: NCI 60 five-dose screen A549/ATCC; assay type: cell-based; details: Homo sapiens, five-dose
HL-60(TB) = assay: NCI 60 five-dose screen HL-60(TB); assay type: cell-based; details: Homo sapiens, five-dose
ACHN = assay: NCI 60 five-dose screen ACHN; assay type: cell-based; details: Homo sapiens, five-dose
HCC-2998 = assay: NCI 60 five-dose screen HCC-2998; assay type: cell-based; details: Homo sapiens, five-dose
SK-MEL-28 = assay: NCI 60 five-dose screen SK-MEL-28; assay type: cell-based; details: Homo sapiens, five-dose
HOP-62 = assay: NCI 60 five-dose screen HOP-62; assay type: cell-based; details: Homo sapiens, five-dose
OVCAR-4 = assay: NCI 60 five-dose screen OVCAR-4; assay type: cell-based; details: Homo sapiens, five-dose
SK-MEL-5 = assay: NCI 60 five-dose screen SK-MEL-5; assay type: cell-based; details: Homo sapiens, five-dose
MDA-MB-468 = assay: NCI 60 five-dose screen MDA-MB-468; assay type: cell-based; details: Homo sapiens, five-dose
M14 = assay: NCI 60 five-dose screen M14; assay type: cell-based; details: Homo sapiens, five-dose
[1] = read-out: LC50 (the source's name) (converted)
[2] = read-out: LC50 (the source's name)

FC(F)(F)CN1CCN(CCn2c(C(F)(F)F)cc3c(Cl)ncnc32)CC1 [NUCC-0226683]
GI50 (OVCAR-3): 14.5 µM
IC50 (OVCAR-3): 28.8 µM
IC (TGI) (OVCAR-3): 34.7 µM
CC50 (OVCAR-3; [1]): 83.2 µM
GI50 (T-47D): 17.4 µM
IC50 (T-47D): 49 µM
IC (TGI) (T-47D): 63.1 µM
CC50 (T-47D; [2]): ≥ 100 µM
GI50 (CAKI-1): 13.5 µM
IC50 (CAKI-1): 25.7 µM
IC (TGI) (CAKI-1): 30.9 µM
CC50 (CAKI-1; [1]): 69.2 µM
GI50 (MOLT-4): 2400 nM
IC50 (MOLT-4): 4.17 µM
IC (TGI) (MOLT-4): 9.12 µM
CC50 (MOLT-4; [2]): ≥ 100 µM
GI50 (SR): 2140 nM
IC50 (SR): 3.55 µM
CC50 (SR; [2]): ≥ 100 µM
GI50 (NCI-H23): 5.89 µM
IC50 (NCI-H23): 14.8 µM
IC (TGI) (NCI-H23): 26.9 µM
CC50 (NCI-H23; [1]): ≥ 100 µM
GI50 (TK-10): 35.5 µM
IC50 (TK-10): 100 µM
IC (TGI) (TK-10): 100 µM
CC50 (TK-10; [1]): ≥ 100 µM
GI50 (786-0): 22.4 µM
IC50 (786-0): 37.2 µM
IC (TGI) (786-0): 60.3 µM
CC50 (786-0; [1]): ≥ 100 µM
GI50 (A498): 21.4 µM
IC50 (A498): 100 µM
IC (TGI) (A498): 57.5 µM
CC50 (A498; [1]): ≥ 100 µM
GI50 (RPMI-8226): 23.4 µM
IC50 (RPMI-8226): 39.8 µM
IC (TGI) (RPMI-8226): 77.6 µM
CC50 (RPMI-8226; [2]): ≥ 100 µM
GI50 (NCI-H226): 17.4 µM
IC50 (NCI-H226): 100 µM
IC (TGI) (NCI-H226): 72.4 µM
CC50 (NCI-H226; [1]): ≥ 100 µM
GI50 (BT-549): 12.9 µM
IC50 (BT-549): 26.9 µM
IC (TGI) (BT-549): 26.9 µM
CC50 (BT-549; [1]): 55 µM
GI50 (SF-539): 12.6 µM
IC50 (SF-539): 22.9 µM
IC (TGI) (SF-539): 28.8 µM
CC50 (SF-539; [1]): 66.1 µM
GI50 (HS 578T): 14.1 µM
IC50 (HS 578T): 100 µM
IC (TGI) (HS 578T): 60.3 µM
CC50 (HS 578T; [2]): ≥ 100 µM
GI50 (IGROV1): 1780 nM
IC50 (IGROV1): 3.16 µM
IC (TGI) (IGROV1): 3.55 µM
CC50 (IGROV1; [1]): 7.08 µM
GI50 (MALME-3M): 14.5 µM
IC50 (MALME-3M): 33.9 µM
IC (TGI) (MALME-3M): 32.4 µM
CC50 (MALME-3M; [1]): 70.8 µM
GI50 (U251): 2400 nM
IC50 (U251): 3.63 µM
IC (TGI) (U251): 6.46 µM
CC50 (U251; [1]): 24 µM
GI50 (MCF7): 10 µM
IC50 (MCF7): 15.8 µM
IC (TGI) (MCF7): 42.7 µM
CC50 (MCF7; [1]): ≥ 100 µM
GI50 (A549/ATCC): 52.5 µM
IC50 (A549/ATCC): 89.1 µM
IC (TGI) (A549/ATCC): 100 µM
CC50 (A549/ATCC; [1]): ≥ 100 µM
GI50 (HL-60(TB)): 2750 nM
IC50 (HL-60(TB)): 5.75 µM
IC (TGI) (HL-60(TB)): 8.13 µM
CC50 (HL-60(TB); [1]): ≥ 100 µM
GI50 (ACHN): 12.3 µM
IC50 (ACHN): 22.4 µM
IC (TGI) (ACHN): 100 µM
CC50 (ACHN; [1]): ≥ 100 µM
GI50 (HCC-2998): 1820 nM
IC50 (HCC-2998): 3.24 µM
IC (TGI) (HCC-2998): 3.31 µM
CC50 (HCC-2998; [1]): 5.89 µM
GI50 (SK-MEL-28): 8.13 µM
IC50 (SK-MEL-28): 16.6 µM
IC (TGI) (SK-MEL-28): 37.2 µM
CC50 (SK-MEL-28; [1]): ≥ 100 µM
GI50 (HOP-62): 13.8 µM
IC50 (HOP-62): 28.8 µM
IC (TGI) (HOP-62): 32.4 µM
CC50 (HOP-62; [1]): 75.9 µM
GI50 (OVCAR-4): 26.9 µM
IC50 (OVCAR-4): 89.1 µM
IC (TGI) (OVCAR-4): 100 µM
CC50 (OVCAR-4; [1]): ≥ 100 µM
GI50 (SK-MEL-5): 3.72 µM
IC50 (SK-MEL-5): 6.17 µM
IC (TGI) (SK-MEL-5): 13.8 µM
CC50 (SK-MEL-5; [1]): 37.2 µM
GI50 (MDA-MB-468): 2190 nM
IC50 (MDA-MB-468): 6.03 µM
IC (TGI) (MDA-MB-468): 4.9 µM
CC50 (MDA-MB-468; [1]): 14.1 µM
GI50 (M14): 6.17 µM
IC50 (M14): 12.3 µM
IC (TGI) (M14): 22.9 µM
CC50 (M14; [1]): 67.6 µM
